The assay is described as follows: incubation effect on Rab7 inhibitor curves, late-stage follow-up, mechanism study, biochemical, Rab7 wildtype, bead flow cytometry, two incubation protocols (AID 720699). Particulars: Rab7 beads, Bodipy-FL-GTP binding. (In general: Flow cytometry measures light scatter and fluorescence of single cells or particles in a stream.)

For orientation: EC50 means the concentration needed to bring the measured effect to its halfway point. With `CC1(C)Cc2c(sc(NC(=S)NC(=O)c3cccc(N=[N+]=[N-])c3)c2C(=O)O)CO1`, the EC50 (protocol A) is 1260 nM and the 50% effective concentration (EC50) (protocol B) was 1220 nM.
For `CC1(C)Cc2c(sc(NC(=S)NC(=O)c3ccc(N=[N+]=[N-])cc3)c2C(=O)O)CO1`, the concentration for a half-maximal effect (EC50) is 219 nM (protocol A) and 172 nM (protocol B).

The values are drawn from PubChem BioAssay AID720699 (NMMLSC, 2013).
